Measurements published in patent US12146167B2 (priority 2021, dated 2024).

Tests used:
Details in all cases: pH 7.5
[1] = test system: Cg_MetY_P2T (O-acetylhomoserine sulfhydrylase variant metY_P2T, SEQ ID NO: 6); format: biochemical, Corynebacterium glutamicum ATCC 13032
[2] = test system: Cv_MetZ (O-succinylhomoserine sulfhydrylase metZ, SEQ ID NO: 10); format: biochemical, Chromobacterium violaceum ATCC 12472
[3] = test system: Hn_MetZ (O-succinylhomoserine sulfhydrylase metZ, SEQ ID NO: 14); format: biochemical, Hyphomonas neptunium ATCC 15444
[4] = test system: Cg_MetY (O-acetylhomoserine sulfhydrylase metY, SEQ ID NO: 2); format: biochemical, Corynebacterium glutamicum ATCC 13032

Measured: Product

CS [MM, methyl mercaptane]
yes: all assays above
